Experimental data from US20240228535A1 (priority 2022, published 2024).

Target: SARS2 coronavirus 3CL protease (Severe acute respiratory syndrome coronavirus 2, UniProt P0DTD1)
Experiment: biochemical
Settings: 5 nM enzyme, 30 min pre-incubation with compound, 15 μM peptide substrate, 4 h at room temperature; read-out: FRET Potency (nM); IC50 values in the SARS2 3CLPro FRET assay

Compound | IC50 [nM]
COC(=O)Nc1ccc(Cl)cc1C(=O)N[C@@H](C[C@@H]1CCNC1=O)C(=O)C(=O)NC1CC1 [Example 123] | 7.3
O=C(NC1CC1)C(=O)[C@H](C[C@@H]1CCNC1=O)NC(=O)c1cc(Cl)ccc1NC(=O)C1(C(F)(F)F)CC1 [Example 102] | 12.9
CNC(=O)C(=O)[C@H](C[C@@H]1C[C@@H](C)NC1=O)NC(=O)c1cc(Cl)ccc1NC(=O)C1CC1(F)F (single isomer, unassigned) [Example 14] | 46.4
CNC(=O)C(=O)[C@H](C[C@@H]1C[C@@H](C)NC1=O)NC(=O)c1cc(Cl)ccc1NC(=O)OCC1CCCC(F)(F)C1 (stereo partly drawn) [Example 218, (3,3-difluorocyclohexyl)methyl N-[4-chloro-2-[[(1S)-3-(methylamino)-1-[[(3S,5R)-5-methyl-2-oxo-pyrrolidin-3-yl]methyl]-2,3-dioxo-propyl]carbamoyl]phenyl] carbamate] | 6.8
C[C@@H]1C[C@@H](C[C@H](NC(=O)c2cc(Cl)cc(Cl)c2NC(=O)C23CC(F)(C2)C3)C(=O)C(=O)NC2CC2)C(=O)N1 [Example 80, N-[2,4-dichloro-6-[[(1S)-3-(cyclopropylamino)-1-[[(3S,5R)-5-methyl-2-oxo-pyrrolidin-3-yl]methyl]-2,3-dioxo-propyl]carbamoyl]phenyl]-3-fluoro-bicyclo[1.1.1]pentane-1-carboxamide] | 21.6
CNC(=O)C(=O)[C@H](C[C@@H]1CCNC1=O)NC(=O)c1cc(Cl)ccc1NC(=O)OCc1ccccc1 [Example 174] | 6.5
CNC(=O)C(=O)[C@H](C[C@@H]1C[C@@H](C)NC1=O)NC(=O)c1cc(Cl)cnc1NC(=O)OC1CC1 [Example 140, cyclopropyl N-[5-chloro-3-[[(1S)-3-(methylamino)-1-[[(3S,5R)-5-methyl-2-oxo-pyrrolidin-3-yl]methyl]-2,3-dioxo-propyl]carbamoyl]-2-pyridyl]carbamate] | 9.2
C[C@@H]1C[C@@H](C[C@H](NC(=O)c2cc(F)ccc2NC(=O)C2(C(F)(F)F)CC2)C(=O)C(=O)NC2CC2)C(=O)N1 [Example 25, N-[(1S)-3-(cyclopropylamino)-1-[[(3S,5R)-5-methyl-2-oxo-pyrrolidin-3-yl]methyl]-2,3-dioxo-propyl]-5-fluoro-2-[[1-(trifluoromethyl)cyclopropane-carbonyl]amino]benzamide] | 18.1
C[C@@H]1C[C@@H](C[C@H](NC(=O)c2cc(Cl)ccc2NC(=O)CCC(F)(F)F)C(=O)C(=O)NC2CC2)C(=O)N1 [Example 3, 5-chloro-N—((S)-4-(cyclopropylamino)-1-((3S,5R)-5-methyl-2-oxopyrrolidin-3-yl)-3,4-dioxobutan-2-yl)-2-(4,4,4-trifluorobutanamido)benzamide] | 6.9
C[C@@H]1C[C@@H](C[C@H](NC(=O)c2cc(Cl)ccc2NC(=O)CCC(F)(F)F)C(=O)C(=O)NCc2ccncc2)C(=O)N1 [Example 114, 5-chloro-N-[(1S)-1-[[(3S,5R)-5-methyl-2-oxo-pyrrolidin-3-yl]methyl]-2,3-dioxo-3-(4-pyridylmethylamino)propyl]-2-(4,4,4-trifluorobutanoylamino) benzamide] | 18.9
CNC(=O)C(=O)[C@H](C[C@@H]1CCNC1=O)NC(=O)c1cc(Cl)ccc1NC(=O)C(C)c1cscn1 (stereo partly drawn) [Example 179, 5-chloro-N-[(1S)-3-(methylamino)-2,3-dioxo-1-[[(3S)-2-oxopyrrolidin-3-yl]methyl]propyl]-2-(2-thiazol-4-ylpropanoylamino)benzamide] | 2.5
CNC(=O)C(=O)[C@H](C[C@@H]1C[C@@H](C)NC1=O)NC(=O)c1cc(Cl)ccc1NC(=O)C1CN(C)C1 [Example 149, N-[4-chloro-2-[[(1S)-3-(methylamino)-1-[[(3S,5R)-5-methyl-2-oxo-pyrrolidin-3-yl]methyl]-2,3-dioxo-propyl]carbamoyl]phenyl]-1-methyl-azetidine-3-carboxamide] | 10.8
CNC(=O)C(=O)[C@H](C[C@@H]1CCNC1=O)NC(=O)c1cc(Cl)ccc1NC(=O)OC1CCC1 [Example 137, cyclobutyl N-[4-chloro-2-[[(1S)-3-(methylamino)-2,3-dioxo-1-[[(3S)-2-oxopyrrolidin-3-yl]methyl]propyl]carbamoyl]phenyl]carbamate] | 5.4
O=C(CC(F)(F)F)Nc1ccc(Cl)cc1C(=O)N[C@@H](C[C@@H]1CCNC1=O)C(=O)C(=O)NC1CC1 [Example 38, 5-chloro-N-[(1S)-3-(cyclopropylamino)-2,3-dioxo-1-[[(3S)-2-oxopyrrolidin-3-yl]methyl]propyl]-2-(3,3,3-trifluoropropanoylamino) benzamide] | 10.5
CNC(=O)C(=O)[C@H](C[C@@H]1CCNC1=O)NC(=O)c1cc(Cl)ccc1NC(=O)OC1(C)CC1 [Example 138, (1-methylcyclopropyl) N-[4-chloro-2-[[(1S)-3-(methylamino)-2,3-dioxo-1-[[(3S)-2-oxopyrrolidin-3-yl]methyl]propyl]carbamoyl]phenyl]carbamate] | 18.6
CNC(=O)C(=O)[C@H](C[C@@H]1C[C@@H](C)NC1=O)NC(=O)c1cc(Cl)ccc1NC(=O)[C@@H](N(C)C(=O)OC)C(C)(C)C [Example 221] | 41.9
CNC(=O)C(=O)[C@H](C[C@@H]1C[C@@H](C)NC1=O)NC(=O)c1cc(Cl)ccc1NC(=O)C1(C(F)(F)F)CC1 [Example 34, 5-chloro-N-[(1S)-3-(methylamino)-1-[[(3S,5R)-5-methyl-2-oxo-pyrrolidin-3-yl]methyl]-2,3-dioxo-propyl]-2-[[1-(trifluoromethyl)cyclopropane-carbonyl]amino]benzamide] | 11.2
CNC(=O)C(=O)[C@H](C[C@@H]1C[C@@H](C)NC1=O)NC(=O)c1cc(OC(F)F)cnc1NC(=O)c1cccc(C(F)(F)F)c1 [Example 18, 5-(difluoromethoxy)-N-[(1S)-3-(methylamino)-1-[[(3S,5R)-5-methyl-2-oxo-pyrrolidin-3-yl]methyl]-2,3-dioxo-propyl]-2-[[3-(trifluoromethyl)benzoyl]amino]pyridine-3-carboxamide] | 31.1
CNC(=O)C(=O)[C@H](C[C@@H]1CCNC1=O)NC(=O)c1cc(Cl)ccc1NC(=O)C1CC1 [Example 110, 5-chloro-2-(cyclopropanecarbonylamino)-N-[(1S)-3-(methylamino)-2,3-dioxo-1-[[(3S)-2-oxopyrrolidin-3-yl]methyl]propyl]benzamide] | 3.1
[2H]C([2H])([2H])OC(=O)Nc1ccc(Cl)cc1C(=O)N[C@@H](C[C@@H]1CCNC1=O)C(=O)C(=O)NC [Example 108, trideuteriomethyl N-[4-chloro-2-[[(1S)-3-(methylamino)-2,3-dioxo-1-[[(3S)-2-oxopyrrolidin-3-yl]methyl]propyl]carbamoyl]phenyl]carbamate] | 4.8
CNC(=O)C(=O)[C@H](C[C@@H]1C[C@@H](C)NC1=O)NC(=O)c1cc(Cl)ncc1NC(=O)OC [Example 118] | 23.9
CNC(=O)C(=O)[C@H](C[C@@H]1C[C@@H](C)NC1=O)NC(=O)c1cc(Cl)ccc1NC(=O)c1cncc(C(F)(F)F)c1 [Example 91, N-[4-chloro-2-[[(1S)-3-(methylamino)-1-[[(3S,5R)-5-methyl-2-oxo-pyrrolidin-3-yl]methyl]-2,3-dioxo-propyl]carbamoyl]phenyl]-5-(trifluoromethyl)pyridine-3-carboxamide] | 6.1
C[C@@H]1C[C@@H](C[C@H](NC(=O)c2cc(Cl)ccc2NC(=O)C2(C(F)(F)F)CCC2)C(=O)C(=O)NC2CC2)C(=O)N1 [Example 35, 5-chloro-N-[(1S)-3-(cyclopropylamino)-1-[[(3S,5R)-5-methyl-2-oxo-pyrrolidin-3-yl]methyl]-2,3-dioxo-propyl]-2-[[1-(trifluoromethyl)cyclobutanecarbonyl]amino]benzamide] | 11.1
CNC(=O)C(=O)[C@H](C[C@@H]1C[C@@H](C)NC1=O)NC(=O)c1cc(Cl)cc(F)c1NC(=O)c1ccnc(C(F)(F)F)c1 [Example 224, N-[4-chloro-2-fluoro-6-[[(1S)-3-(methylamino)-1-[[(3S,5R)-5-methyl-2-oxo-pyrrolidin-3-yl]methyl]-2,3-dioxo-propyl]carbamoyl]phenyl]-2-(trifluoromethyl)pyridine-4-carboxamide] | 7.2
O=C(Nc1ccc(Cl)cc1C(=O)N[C@@H](C[C@@H]1CCNC1=O)C(=O)C(=O)NC1CC1)OC1CCC1 [Example 161, cyclobutyl N-[4-chloro-2-[[(1S)-3-(cyclopropylamino)-2,3-dioxo-1-[[(3S)-2-oxopyrrolidin-3-yl]methyl]propyl]carbamoyl]phenyl]carbamate] | 5.9
CNC(=O)C(=O)[C@H](C[C@@H]1CCNC1=O)NC(=O)c1cc(Cl)ccc1NC(=O)OC1CC(F)(F)C1 [Example 173] | 6.7
CNC(=O)C(=O)[C@H](C[C@@H]1C[C@@H](C)NC1=O)NC(=O)c1cc(Cl)ccc1NC(=O)c1cncc(C#N)c1 [Example 183] | 10.1
CNC(=O)C(=O)[C@H](C[C@@H]1C[C@@H](C(F)(F)F)NC1=O)NC(=O)c1cc(Cl)cnc1NC(=O)c1cccc(C(F)(F)F)c1 [Example 43, 5-chloro-N-[(1S)-3-(methylamino)-2,3-dioxo-1-[[(3R,5S)-2-oxo-5-(trifluoromethyl)pyrrolidin-3-yl]methyl]propyl]-2-[[3-(trifluoromethyl)benzoyl]amino]pyridine-3-carboxamide] | 9.6
C[C@@H]1C[C@@H](C[C@H](NC(=O)c2cc(Cl)cnc2NC(=O)c2cccc(F)c2)C(=O)C(=O)NC2CC2)C(=O)N1 [Example 58, 5-chloro-N-[(1S)-3-(cyclopropylamino)-1-[[(3S,5R)-5-methyl-2-oxo-pyrrolidin-3-yl]methyl]-2,3-dioxo-propyl]-2-[(3-fluorobenzoyl)amino] pyridine-3-carboxamide] | 8.1
CNC(=O)C(=O)[C@H](C[C@@H]1C[C@@H](C)NC1=O)NC(=O)c1cc(Cl)ccc1NC(=O)OCC1CC1(F)F (stereo partly drawn) [Example 186, (2,2-difluorocyclopropyl)methyl N-[4-chloro-2-[[(1S)-3-(methylamino)-1-[[(3S,5R)-5-methyl-2-oxo-pyrrolidin-3-yl]methyl]-2,3-dioxo-propyl]carbamoyl]phenyl] carbamate] | 2.5
